Usually MIC stands for the least concentration at which growth counts as inhibited. The low end stands for a more susceptible organism, the high end for a less susceptible organism.

Results on four compounds are retold here after ChEMBL document CHEMBL3739380, “Discovery of benzothiazoles as antimycobacterial agents: Synthesis, structure-activity relationships and binding studies with Mycobacterium tuberculosis decaprenylphosphoryl-β-D-ribose 2'-oxidase” (Bioorg Med Chem, 2015).

In brackets after ≈: the same amount, converted by molar mass.

Holding throughout (format): functional
Test [1] has as its system Mycobacterium tuberculosis. The test is described as follows: Antimycobacterial activity against rifampicin-resistant Mycobacterium tuberculosis after 2 to 3 weeks by turbidity assay.
Test [2] concerns Mycobacterium tuberculosis. The test is described as follows: Antimycobacterial activity against INH-resistant Mycobacterium tuberculosis after 2 to 3 weeks by turbidity assay.
Test [3] relates to Mycobacterium tuberculosis. Briefly: Antimycobacterial activity against streptomycin-resistant Mycobacterium tuberculosis after 2 to 3 weeks by turbidity assay.

As for `COCCN1CCN(C(=O)c2nc3cc(C(F)(F)F)c(C)c([N+](=O)[O-])c3s2)CC1`, the MIC in test [1], in test [2] and in test [3] was 1 µg/mL (≈ 2.31 µM) each time.
For the compound `O=C(NCc1ccccn1)c1nc2cc(C(F)(F)F)cc([N+](=O)[O-])c2s1`, the MIC in test [1] was 0.25 µg/mL (≈ 0.654 µM); in test [2] it was 0.12 µg/mL (≈ 0.314 µM); in test [3], 0.25 µg/mL (≈ 0.654 µM).
For `Cc1c(C(F)(F)F)cc2nc(C(=O)N3CCCCC3)sc2c1[N+](=O)[O-]`, the MIC stood at 0.5 µg/mL (≈ 1.34 µM) in test [1], 0.25 µg/mL (≈ 0.67 µM) in test [2] and 0.25 µg/mL (≈ 0.67 µM) in test [3].
For `O=C(NCc1ccccn1)c1sc2c([N+](=O)[O-])cc(C(F)(F)F)cc2[n+]1[O-]`, the values for the minimal inhibitory concentration (MIC) in test [1], in test [2] and in test [3] were 0.03 µg/mL (≈ 0.0753 µM), 0.06 µg/mL (≈ 0.151 µM) and 0.06 µg/mL (≈ 0.151 µM), respectively.
